Measured values reported in article PMC5573416, “Inhibiting mycobacterial tryptophan synthase by targeting the inter-subunit interface” (Scientific Reports, 2017).
In brackets after ≈: the same amount, converted by molar mass. Where two headings read alike, the source gives them in different places.

What was measured:
[1] = system: M. bovis BCG; assay type: cell-based, Mycobacterium bovis BCG
[2] = system: Mtb H37Rv; assay: microbe, parasite or virus in culture; assay type: cell-based, Mycobacterium tuberculosis; settings: for MIC: Mycobacterium tuberculosis, H37RV, read-out: Mtb H37Rv MIC
[3] = Property forecast index (ChromlogD pH 7.4 + number of aromatic rings); assay type: physicochemical
[4] = system: HepG2 cells
[5] = pH 7.4
[6] = PAMPA
[7] = system: Mtb H37Rv; settings: mouse, in vivo
[8] = system: Mycobacterium bovis BCG; assay: microbe, parasite or virus in culture; assay type: cell-based; settings: Mycobacterium tuberculosis variant bovis BCG, read-out: MIC in M. bovis BCG
[9] = system: M. bovis BCG over-expressing constituents of the trp operon; assay type: cell-based; settings: pVV16 trpA or trpB
[10] = pH 7.4; remark: listed apart in the source
[11] = pH 7.4; remark: listed apart in the source
[12] = physchem; settings: pH 7.4, aqueous buffer, kinetic from dmso stock
[13] = in vitro; settings: PAMPA
[14] = target: T1, Mtb tryptophan synthase (TrpA and TrpB) (Mycobacterium tuberculosis, UniProt P9WFX9+P9WFY1); assay type: biochemical
T1 sequence (P9WFY1 whole entry): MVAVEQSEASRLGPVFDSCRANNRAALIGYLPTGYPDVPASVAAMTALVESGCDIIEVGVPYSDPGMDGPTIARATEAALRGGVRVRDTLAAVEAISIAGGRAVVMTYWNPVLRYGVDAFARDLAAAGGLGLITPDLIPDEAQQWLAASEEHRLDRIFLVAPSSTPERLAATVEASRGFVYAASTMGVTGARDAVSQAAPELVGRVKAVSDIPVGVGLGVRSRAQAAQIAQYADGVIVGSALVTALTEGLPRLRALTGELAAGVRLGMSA
T1 sequence (P9WFX9 12-421 limits assumed): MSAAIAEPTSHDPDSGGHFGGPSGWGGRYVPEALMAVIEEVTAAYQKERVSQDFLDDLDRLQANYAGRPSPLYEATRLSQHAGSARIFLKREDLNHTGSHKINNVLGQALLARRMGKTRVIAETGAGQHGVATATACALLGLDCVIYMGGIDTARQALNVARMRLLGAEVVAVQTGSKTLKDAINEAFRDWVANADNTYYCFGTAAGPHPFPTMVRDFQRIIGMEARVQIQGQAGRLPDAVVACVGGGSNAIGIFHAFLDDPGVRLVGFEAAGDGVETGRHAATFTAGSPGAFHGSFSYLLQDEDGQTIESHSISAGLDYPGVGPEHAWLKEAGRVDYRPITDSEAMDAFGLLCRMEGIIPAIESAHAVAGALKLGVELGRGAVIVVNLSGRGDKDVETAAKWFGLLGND

[15] = target: PLP-induced tryptophan synthase complex (Mycobacterium tuberculosis, UniProt P9WFX9+P9WFY1); assay type: binding
Chain of PLP-induced tryptophan synthase complex (P9WFY1 whole entry): as the sequence (P9WFY1 whole entry) above
Chain of PLP-induced tryptophan synthase complex (P9WFX9 12-421 limits assumed): as the sequence (P9WFX9 12-421 limits assumed) above

[16] = target: T1, Mtb tryptophan synthase (TrpA and TrpB); assay type: biochemical; remark: listed apart in the source
[17] = sum of chromatographic logD at pH = 7.4 + number of aromatic rings

| Compound | L-tryptophan rescue of inhibition [1] | Mtb H37Rv MIC [2] [µM] | PFI [3, 17] | HepG2 Tox50 [4] [µM] | CLND Solubility [5] | AMP Permeability [6] [nm/s] | MIC [2] [µM] | MIC [8] [µM] | Effect on MIC of over-expression of the individual WT subunits [9] | HepG2 Tox50 ([4]; human) [µM] | Cli mouse [10] [mL/min/g] | Cli human [11] [mL/min/g] | solubility [12] [µM] | Papp [13] [×10⁻⁶ cm/s] | Binding to PLP-induced tryptophan synthase complex [15] | also measured |
| --- | --- | --- | --- | --- | --- | --- | --- | --- | --- | --- | --- | --- | --- | --- | --- | --- |
| NNC(=O)c1ccncc1 [Isoniazid, isoniazid, reference compound] | L-tryptophan does not rescue the inhibition |  |  |  |  |  |  |  |  |  |  |  |  |  |  |  |
| (3R,4R)-3-(4-(2-chloro-4-fluorophenyl)piperidin-1-yl)-4-hydroxytetrahydrothiophene 1,1-dioxide [Compound 5] |  | 0.5 | 5.22 | >100 | 397 µM | 520 |  |  |  |  |  |  |  |  |  | Efficacy response in acute infection assay ([7]; sc): did not show a statistically significant response |
| O=S1(=O)C[C@H](O)[C@@H](N2CCN(c3ccccc3Cl)CC2)C1 [Compound 1, (3R,4R)-3-(4-(2-chlorophenyl)piperazin-1-yl)-4-hydroxytetrahydrothiophene 1,1-dioxide] |  |  | 4.53 |  |  |  | 0.76 (≈ 0.251 µg/mL) | 1 (≈ 0.331 µg/mL) | did not alter the MIC | >50 | 15.7 | 0.92 | > 464 | 38 |  |  |
| CNS(=O)(=O)c1ccc2c(c1)CCN2C(=O)c1ccccc1F [Compound 2] | L-tryptophan rescued the inhibition |  |  |  | enhanced solubility |  | 5.6 (≈ 1.87 µg/mL) | 5 (≈ 1.67 µg/mL) | did not alter the MIC | >100 |  |  | 140 (≈ 46.8 µg/mL) | 26 | binding of both inhibitors | PFI [3]: 5.80; L-tryptophan synthesis in presence of inhibitor (TLC) [14]: markedly decreased |
| CNS(=O)(=O)c1ccc2c(c1)CCN2C(=O)c1ccc(C)s1 [Compound 3] | L-tryptophan rescued the inhibition |  |  |  | poor solubility |  | 1.1 (≈ 0.37 µg/mL) | 0.7 (≈ 0.236 µg/mL) | did not alter the MIC | >100 | 27.1 | 1.9 | 19 (≈ 6.39 µg/mL) | 42.7 | binding of both inhibitors | L-tryptophan produced in presence of inhibitor (GF-HPLC) [16]: significant decrease in the L-tryptophan produced |
| (3R,4R)-3-(4-(2-chlorophenyl)piperidin-1-yl)-4-hydroxytetrahydrothiophene 1,1-dioxide [Compound 4] |  | 2.25 | 5.43 | >100 | 434 µM | 625 |  |  |  |  |  |  |  |  |  | Efficacy response in acute infection assay [7]: proved to be efficacious; Reduction of log CFU compared with untreated mice ([7]; po, 350 mg/kg): 1.4 log colony forming units (CFU); Tolerability in infected mice ([7]; po, 500 mg/kg): had to be withdrawn due to adverse effects |
